Laboratory results from BindingDB's records for patent WO2022109580 (JANSSEN PHARMACEUTICA NV, 2022).

Target: T1, Non-receptor tyrosine-protein kinase TYK2 [556-871] (Homo sapiens, UniProt P29597)
T1 construct: 556-871
Assay: Probe Displacement Assay
Procedure: The probe displacement assay is conducted as follows: In a 384-well plate, test compound along with recombinantly expressed His-tagged protein corresponding to amino acids 556-871 of human TYK2 (sequence shown below) at 5 nM, 33 nM probe (BB, preparation described below) and 0.33 mg/mL Yttrium oxide (YOx) His-capture SPA beads (PerkinElmer, RPNQ0276) in IX PBS containing 10 mM MgCl2, 0.1 mg/mL BSA, 0.1 mM TCEP, 0.005% Tween-20, and 1% DMSO (final concentration) were incubated for 10 hours at room temperature. The amount of radiolabeled probe bound to TYK2 was then quantified using a ViewLux Microplate Imager, and the fraction bound by the test compound calculated by comparison to wells containing scale references for 0% and 100% probe displacement. The IC50 value is defined as the concentration of test compound required to inhibit radiolabeled probe binding by 50%.

T1 sequence (P29597 556-871): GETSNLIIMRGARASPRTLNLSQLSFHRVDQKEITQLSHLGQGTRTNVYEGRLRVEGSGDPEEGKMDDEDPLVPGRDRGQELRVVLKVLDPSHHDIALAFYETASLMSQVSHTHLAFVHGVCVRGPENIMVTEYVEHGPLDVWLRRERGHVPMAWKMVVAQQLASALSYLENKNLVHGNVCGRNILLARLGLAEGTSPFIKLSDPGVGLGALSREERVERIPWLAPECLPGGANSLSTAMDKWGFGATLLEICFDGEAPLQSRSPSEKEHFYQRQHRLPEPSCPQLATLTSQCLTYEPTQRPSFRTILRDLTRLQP

Compound	IC50 [nM]
COCCOc1cc(-n2nc(C)c3cnc(NC(N)=O)cc32)nc([C@@]2(OC)CCOC2)c1 [WO2022109580, Example 10]	6
CO[C@]1(c2cc(C)cc(-c3cc(C)n4cnc(NC(N)=O)cc34)n2)CCOC1 [WO2022109580, Example 25]	2
CO[C@@]1(c2cc(C)cc(-n3nc(C)c4cnc(NC(N)=O)cc43)n2)CCOC1 [WO2022109580, Example 5]	3
CO[C@]1(c2cc(C)cc(-n3nc(-c4cnn(C)c4)c4cnc(NC(N)=O)cc43)n2)CCOC1 [WO2022109580, Example 2]	4
CO[C@]1(c2cc(C)cc(-n3nc(-c4cnoc4)c4cnc(NC(N)=O)cc43)n2)CCOC1 [WO2022109580, Example 4]	2
CO[C@@]1(c2cc(C)cc(-n3nc(-c4cnoc4)c4cnc(NC(N)=O)cc43)n2)CCOC1 [WO2022109580, Example 3]	1
CO[C@]1(c2cc(OC[C@@H](C)O)cc(-n3nc(C)c4cnc(NC(N)=O)cc43)n2)CCOC1 [WO2022109580, Example 12]	6
CO[C@]1(c2cc(C)cc(-c3cc(-c4cnn(C)c4)n4cnc(NC(N)=O)cc34)n2)CCOC1 [WO2022109580, Example 24]	42
CO[C@]1(c2cc(C)cc(-n3nc(C)c4cnc(NC(N)=O)cc43)n2)CCOC1 [WO2022109580, Example 6]	8
CO[C@@]1(c2cc(C)cc(-n3nc(-c4cnn(C)c4)c4cnc(NC(N)=O)cc43)n2)CCOC1 [WO2022109580, Example 1]	2
COCCOc1cc(-n2nc(C)c3cnc(NC(N)=O)cc32)nc([C@]2(OC)CCOC2)c1 [WO2022109580, Example 9]	2
CO[C@@]1(c2cc(C)cc(N3C=C(c4cnn(C)c4)N4C=NC(NC(N)=O)=CC43)n2)CCOC1 (stereo partly specified) [WO2022109580, Example 23]	5

Further lines, results first:

IC50 [nM]	Compound
2	CO[C@@]1(c2cc(OCC3COC3)cc(-n3cc(C)c4cnc(NC(N)=O)cc43)n2)CCOC1 [WO2022109580, Example 19]
14	CO[C@]1(c2cc(OCC3CS(=O)(=O)C3)cc(-n3cc(C)c4cnc(NC(N)=O)cc43)n2)CCOC1 [WO2022109580, Example 22]
7	CO[C@]1(c2cc(OCC3CS(=O)(=O)C3)cc(-n3nc(C)c4cnc(NC(N)=O)cc43)n2)CCOC1 [WO2022109580, Example 16]
8	CO[C@]1(c2cc(C)cc(-n3cc(C)c4cnc(NC(N)=O)cc43)n2)CCOC1 [WO2022109580, Example 18]
2	CO[C@@]1(c2cc(OCC3COC3)cc(-n3nc(C)c4cnc(NC(N)=O)cc43)n2)CCOC1 [WO2022109580, Example 13]
11	CO[C@]1(c2cc(OCC3COC3)cc(-n3cc(C)c4cnc(NC(N)=O)cc43)n2)CCOC1 [WO2022109580, Example 20]
2	CO[C@@]1(c2cc(OC[C@@H](C)O)cc(-n3nc(C)c4cnc(NC(N)=O)cc43)n2)CCOC1 [WO2022109580, Example 11]
4	CO[C@]1(c2cc(OCC3COC3)cc(-n3nc(C)c4cnc(NC(N)=O)cc43)n2)CCOC1 [WO2022109580, Example 14]
4	CO[C@@]1(c2cc(C)cc(-n3cc(C)c4cnc(NC(N)=O)cc43)n2)CCOC1 [WO2022109580, Example 17]
